{
  "source": "patent US20240000119A1",
  "about": "“MEGASTIGMANE DERIVATIVE COMPOSITIONS AND METHODS FOR TASTE MODULATION” (INTERNATIONAL FLAVORS & FRAGRANCES, priority 2020, published 2024)",
  "key": {"[1]": {"test": "Flavor profiles of megastigmane derivative solutions in water compared with sucrose solution", "source_text": "The flavor profiles of various megastigmane derivative solutions in water including lauroside A (0.5 ppm), ampelopsisionoside (0.5 ppm), bridelionoside F (0.5 ppm), actinidioionoside (0.5 ppm) and roseoside solutions (0.5 ppm) were each compared with that of sucrose solution (1.5%)."}, "[2]": {"test": "Enhancement of sucrose sweetness: flavor profile of sucrose base solution with added megastigmane derivative", "settings": "0.5 ppm in sucrose base solution (4%)", "procedure": "(§1) A sucrose base solution (4%) (“base”) was prepared in water.\nSolutions of lauroside A, ampelopsisionoside, bridelionoside F and actinidioionoside were prepared in water (0.01%).\nThe solutions of lauroside A, ampelopsisionoside, bridelionoside F and actinidioionoside (0.01%) were added to the base, respectively, to a final concentration of 0.5 ppm. The flavor profiles of the sucrose base solution with added megastigmane derivatives are reported in the following: […]"}, "[3]": {"test": "Enhancement of mouthfeel by roseoside in water"}, "[4]": {"test": "Sweetness enhancement at different concentrations: flavor profile of sucrose base solution with added roseoside", "procedure": "as §1\nRoseoside was added to the base to provide a series of solutions with concentrations ranging from 1 ppb to 5 ppm. The flavor profile of the sucrose solution with added roseoside is reported in the following: […]"}, "[5]": {"settings": "0.5 ppm in water, compared with sucrose solution (1.5%)"}},
  "data": [
    {"smiles": "CC1=C(/C=C/C(C)OC2OC(CO)C(O)C(O)C2O)C(C)(C)CC(O)C1O", "note": "(stereo not shown) [Bridelionoside F, bridelionoside F]", "values": [
      {"measurement": "sweet taste (flavor profile)", "setting": "[1]; [5]", "value": "none of the megastigmane derivation solutions exhibited a sweet taste"},
      {"measurement": "Flavor Profile", "setting": "[2]", "value": "Enhanced sweetness and mouthfeel with para"}
    ]},
    {"smiles": "CC(/C=C/C1(O)C(C)CC(=O)CC1(C)C)OC1OC(CO)C(O)C(O)C1O", "note": "(stereo not shown) [Ampelopsisionoside, ampelopsisionoside]", "values": [
      {"measurement": "sweet taste (flavor profile)", "setting": "[1]; [5]", "value": "none of the megastigmane derivation solutions exhibited a sweet taste"}
    ]},
    {"smiles": "OC[C@H]1O[C@@](CO)(O[C@H]2O[C@H](CO)[C@@H](O)[C@H](O)[C@H]2O)[C@@H](O)[C@@H]1O", "note": "[sucrose, reference compound]", "values": [
      {"measurement": "sweet taste (flavor profile)", "setting": "[1]; sucrose solution (1.5%)", "value": "tasted slightly sweet"}
    ]},
    {"smiles": "CC(/C=C/C1(O)C(C)CC(=O)CC1(C)C)OC1OC(CO)C(O)C(O)C1O", "note": "(stereo not shown) [Lauroside A, lauroside A]", "values": [
      {"measurement": "sweet taste (flavor profile)", "setting": "[1]; [5]", "value": "none of the megastigmane derivation solutions exhibited a sweet taste"},
      {"measurement": "Flavor Profile", "setting": "[2]", "value": "Enhanced sweetness and mouthfeel, mouth coating,"}
    ]},
    {"smiles": "CC1=CC(=O)CC(C)(C)C1(O)/C=C/C(C)OC1OC(CO)C(O)C(O)C1O", "note": "(stereo not shown) [Roseoside, roseoside]", "values": [
      {"measurement": "sweet taste (flavor profile)", "setting": "[1]; [5]", "value": "none of the megastigmane derivation solutions exhibited a sweet taste"},
      {"measurement": "Flavor Profile", "setting": "[3]; 0.5 ppm in water", "value": "Slight astringency, not sweet"},
      {"measurement": "Flavor Profile", "setting": "[3]; 2 ppm in water", "value": "Slight astringency, very slight bitterness, slightly"},
      {"measurement": "Flavor Profile", "setting": "[4]; 1 ppb in sucrose base solution (4%)", "value": "Slightly enhanced sweetness and viscous mouthfeel"},
      {"measurement": "Flavor Profile", "setting": "[4]; 1 ppm in sucrose base solution (4%)", "value": "Slightly enhanced and lingering sweetness, viscous"},
      {"measurement": "Flavor Profile", "setting": "[4]; 5 ppm in sucrose base solution (4%)", "value": "More enhanced and lingering sweetness, slight"},
      {"measurement": "Flavor Profile", "setting": "[4]; 10 ppb in sucrose base solution (4%)", "value": "Slightly enhanced and lingering sweetness, viscous"},
      {"measurement": "Flavor Profile", "setting": "[4]; 100 ppb in sucrose base solution (4%)", "value": "Slightly enhanced and lingering sweetness, viscous"}
    ]},
    {"smiles": "CC(/C=C/C1(O)C(C)(C)CC(O)CC1(C)O)OC1OC(CO)C(O)C(O)C1O", "note": "(stereo not shown) [Actinidioionoside, actinidioionoside]", "values": [
      {"measurement": "sweet taste (flavor profile)", "setting": "[1]; [5]", "value": "none of the megastigmane derivation solutions exhibited a sweet taste"},
      {"measurement": "Flavor Profile", "setting": "[2]", "value": "Enhanced sweetness and mouthfeel"}
    ]}
  ]
}
